This note sets out measurements from the NIST ThermoML archive (doi:10.1016/j.jct.2007.11.008).

This data set can be described thus: molar enthalpy of vaporization or sublimation. Conditions: 298 K; Crystal; Static calorimetry.

± gives the expanded uncertainty stated by the source.

Turning to `CCCCN(CCCC)C(=S)NC(=O)c1cccs1` [N-((dibutylamino)thioxomethyl)-2-thiophenecarboxamide], the molar enthalpy came out at 48.92 ± 0.263 kcal/mol.

Consider `CC(C)CN(CC(C)C)C(=S)NC(=O)c1cccs1`, for which the molar enthalpy is 48.57 ± 0.263 kcal/mol.
